Test results as given in patent publication US20230255934A1, “NURR1 RECEPTOR MODULATORS AND USES THEREOF” (The Regents of the University of California, priority 2020, published 2023).
Numbering of substitutions follows the chain as printed. Where two headings read alike, the source gives them in different places.

Columns and labels:
MN9D cells = experiment: CytoTox-Glo cytotoxicity assay; type: cell-based; settings: 24 h treatment, 10 μM unless stated
Experimental: Cytotoxicity assays were carried out using the CytoTox-Glo Cytotoxicity Assay Kit (Promega) according to the manufacturer's instructions. Briefly, MN9D cells were resuspended in DMEM/F-12 with 5% FBS at 2·10^5 cells/ml and added to an equal volume of two-fold concentrated compound in the same media containing 0.2% DMSO (prepared by diluting DMSO stock of the compound in warm DMEM/F-12 with 5% FBS; for DMSO control equivalent volume of DMSO was used instead of the compound stock), and immediately re-plated onto poly-D-lysine pre-treated 96-well white-walled flat clear bottom plate (Corning cat #3903) at a density of 1·10^4 cells/well (100 μL/well), 3 replicas per compound. As a background (BG) control, for each of the compound (or DMSO) equivalent volume of compound mixed with DMEM/F-12+5% FBS was plated. After 24 h treatment at 37° C., in 5% C02 incubator, 50 μL of CytoTox-Glo™ Cytotoxicity Assay Reagent was added to each well, mixed briefly by orbital shaking and incubated for 15 min at ambient temperature. Luminescence signal corresponding to dead cells was measured using Biotek Synergy H4 hybrid microplate reader. After the measurement, 50 μL of Lysis Reagent was added to each well, mixed, incubated for 15 min at ambient temperature, and total luminescence was measured. The percentage of viable cells was then calculated as follows: Percent Viable Cells (%)=100% (Total cell luminescence (test compound)—Dead cell luminescence (test compound))/(Total cell luminescence (DMSO)—Dead cell luminescence (DMSO)).

[1] = Chemical stability in solution; type: physicochemical; settings: observed during data acquisition
[2] = test system: Nurr1 target genes Th and Vmat2 in MN9D cells; experiment: Target gene transcription assay (qPCR) in MN9D cells; type: cell-based, mouse
Experimental: Target Gene Transcription Assays. These assays were carried out using standard protocols. MN9D TET-ON frozen cell stocks (P5) were thawed and grown for 60-72 h on poly-D-lysine pre-treated culture dishes (100 mm) in Dulbecco's Modified Eagle Medium/Nutrient Mixture F-12 (DMEM/F-12; Gibco) supplemented with 5% Tet System Approved FBS (Takara Bio USA) at 37° C., 5% C02 to ˜80% confluency. The resulting cells were then trypsinized with 0.25% Trypsin-EDTA (Gibko) and diluted to 2·10^5 cells/ml with fresh medium. The resulting cell suspension (0.8 mL) was added to 2× concentrated compound in the same medium containing 0.2% DMSO (0.8 mL) in an Eppendorf tube. The cell suspension with compound or vehicle (DMSO) was then seeded onto a 24-well plate pre-treated with Poly-D-Lysine at 0.8 mL per well. Assays were performed under conditions of basal Nurr1 expression, without induction of additional Nurr1 expression using doxycycline.
After 24 h, total RNA was extracted the cells in each well using the Quick-RNA MiniPrep Plus Kit (Zymo Research), according to the manufacturer's instructions. The cDNA was then synthesized from 1000 ng of purified RNA using High-Capacity cDNA Reverse Transcription Kit (Applied Biosystems) and used as template. The qPCR as performed using iTaq Universal SYBR Green Supermix (BioRad) and CFX96 Real-Time Detection System machine (BioRad). Briefly, qPCR was performed in hard-shell 96-well PCR plates (BioRad) using cDNA corresponding to 8.75 ng of starting total RNA in a volume of 15 μl, containing 7.5 μl of SYBR Green Supermix, and 1 μL of 10 μM forward and reverse primers. Cycling parameters for qPCR included an initial denaturation at 95° C. for 3 min, followed by 40 cycles of 95° C. for 5 s and annealing at 56° C. for 30 s. The forward and reverse primers (Table 4) were ordered from IDT. Gene expression was quantified by the comparative2-ΔΔCt method, with the mouse housekeeping gene hypoxanthine-guanine phosphoribosyltransferase (Hprt) used as internal reference to determine the relative mRNA expression. Transcript levels for target genes were normalized to the housekeeping gene Hprt and fold change was compared to gene expression levels from vehicle (DMSO) only treated cells. GraphPad Prism 8 software was used for statistical analysis. Two-way ANOVA was applied for DMSO fold change vs compound. Results are from three independent experiments. Relative average expression±SD; *p<0.05, **p<0.01, ***p<0.001, ****p<0.0001 by ANOVA in comparison expression with 0 μM compound (DMSO only).

Nurr1 LBD Arg563Ala = target: T1, Nurr1 LBD Arg563Ala (Homo sapiens, UniProt P43354, R563A); experiment: MST binding to Arg563Ala mutant Nurr1 LBD; settings: for Amplitude: Table 1, MST amplitude, R563A; for Amplitude (% change) / KD (% change): Table 1, R563A relative to WT; for Response Amplitude: Table 2, MST, Arg563Ala
T1 construct: Mutants of LAP2 Nurr1 were prepared by GenScript starting from LAP2 Nurr1 vector; made in house
T1 sequence (P43354 with tags, fused parts or gaps R563A): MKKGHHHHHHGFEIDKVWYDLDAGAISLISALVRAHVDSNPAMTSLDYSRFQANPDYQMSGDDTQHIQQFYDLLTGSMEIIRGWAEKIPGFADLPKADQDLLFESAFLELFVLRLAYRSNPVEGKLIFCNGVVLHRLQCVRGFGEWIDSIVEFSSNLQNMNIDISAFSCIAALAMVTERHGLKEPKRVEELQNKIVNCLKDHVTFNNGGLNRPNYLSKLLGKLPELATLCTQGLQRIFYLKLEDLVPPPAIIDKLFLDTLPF
Experimental: (§1) The plasmid used for the expression of LAP2-tagged Nurr1 LBDs (LAP2 Nurr1) was prepared by GenScript (Piscataway, N.J.) as the product of gene synthesis and subcloning into pET-21a(+) Vector (GenScript) using the Ndel and Xhol sites within the MCS. Mutants of LAP2 Nurr1 were prepared by GenScript starting from LAP2 Nurr1 vector.
(§2) Concentration-dependent association of the indoles with the Nurr1 LBD was carried out using microscale thermophoresis. Stock solutions (10 mM in DMSO) of each indole were serially diluted (200 μM indole, 0.5× dilutions down to 0.0061 μM) in MST buffer (25 mM HEPES, pH 7.4, 150 mM NaCl, and 0.1% Pluronic F127) containing 2% DMSO. The dilutions were carried out with 4% DMSO in the MST buffer for a total of 16 concentrations. Equivalent volumes and concentrations of the fluorescently labeled Nurr1 LBD in MST buffer were added to each ligand dilution in the series to reach a final concentration of 75 nM labeled protein. After incubating for 20 minutes, the samples were loaded into Monolith NT.115 Capillaries (Nanotemper).
(§3) Data were collected using the Monolith NT.115 System (Nanotemper), with settings for all samples at 40% excitation power and 40% MST power. The initial fluorescence was recorded for 3 sec and the thermophoresis fluorescence response was recorded for 20 sec. The data was inspected with Palmist software^5, and data points affected by initial fluorescence quenching or photobleaching were eliminated. The fluorescent response for each sample was normalized to the initial fluorescence using Palmist software to provide the values of thermophoresis (Fn). The resulting data was used to generate a plot of the change in thermophoresis (Fn-Fn0, where Fn=thermophoresis and Fn0=thermophoresis response in unbound range) versus concentration of the ligand. GraphPad Prism v. 8.3.0 software was used to fit the resulting data to a mass action equation for a specific binding with Hill slope, solving for KD: Fn-Fn0═Fmax·[L]^n/(KD^n+[L]^n), where Fmax=maximum amplitude of thermophoresis, [L]=concentration of the ligand at a specific point, KD=dissociation constant, nH=Hill Coefficient.

Nurr1 LBD (wildtype) = target: T2, Nurr1 LBD (wildtype) (Homo sapiens, UniProt P43354); experiment: Microscale thermophoresis (MST) binding to wildtype Nurr1 LBD; settings: for Binding to the Nurr1 LBD (in words): MST; for Amplitude: Table 1, MST amplitude, WT; for Response Amplitude: Table 2, MST, Wildtype
T2 construct: made in house
Experimental: as §2, §3
To investigate the potential impact of compound nano-aggregation on binding affinity, we used dynamic light scattering to inspect the aggregation of 5-chlorindole in solution and repeated the MST binding experiments in the presence of increasing concentrations of the surfactant Pluoronic F127 (FIGS. 12A-12D). […] As well, increasing concentrations of the surfactant Pluronic F127 had small effects (<2-fold) on the affinity of 5-chloroindole for the Nurr1 LBD (FIGS. 12A-12D).

[3] = target: T3, Nurr1 LBD Arg563Ala + His516Ala (Homo sapiens, UniProt P43354, H516A/R563A); experiment: MST binding to Arg563Ala + His516Ala double mutant Nurr1 LBD; settings: for Amplitude (% change) / KD (% change): Table 1, H516A/R563A relative to WT; for Amplitude: Table 1, MST amplitude, H516A/R563A; for Response Amplitude: Table 2, MST, Arg563Ala + His516Ala
T3 construct: Mutants of LAP2 Nurr1 were prepared by GenScript starting from LAP2 Nurr1 vector; made in house
T3 sequence (P43354 with tags, fused parts or gaps H516A/R563A): T1 sequence (P43354 with tags, fused parts or gaps R563A) with H180A
Experimental: as §1, §2, §3

Nurr1 LBD His516Ala = target: T4, Nurr1 LBD His516Ala (Homo sapiens, UniProt P43354, H516A); experiment: MST binding to His516Ala mutant Nurr1 LBD; settings: for Amplitude (% change) / KD (% change): Table 1, H516 relative to WT; for Amplitude: Table 1, MST amplitude, H516; for Response Amplitude: Table 2, MST, His516Ala
T4 construct: Mutants of LAP2 Nurr1 were prepared by GenScript starting from LAP2 Nurr1 vector; made in house
Experimental: as §1, §2, §3

[4] = Table 1, Nurr1 variant R563A, read-out: KD
[5] = Table 2, Arg563Ala, read-out: Affinity (KD)
[6] = Table 1, Nurr1 variant WT, read-out: KD
[7] = Table 2, Wildtype, read-out: Affinity (KD)
[8] = Table 1, Nurr1 variant H516A/R563A, read-out: KD
[9] = Table 2, Arg563Ala + His516Ala, read-out: Affinity (KD)
[10] = Table 1, Nurr1 variant H516, read-out: KD
[11] = Table 2, His516Ala, read-out: Affinity (KD)

T4 sequence (P43354 with tags, fused parts or gaps H516A): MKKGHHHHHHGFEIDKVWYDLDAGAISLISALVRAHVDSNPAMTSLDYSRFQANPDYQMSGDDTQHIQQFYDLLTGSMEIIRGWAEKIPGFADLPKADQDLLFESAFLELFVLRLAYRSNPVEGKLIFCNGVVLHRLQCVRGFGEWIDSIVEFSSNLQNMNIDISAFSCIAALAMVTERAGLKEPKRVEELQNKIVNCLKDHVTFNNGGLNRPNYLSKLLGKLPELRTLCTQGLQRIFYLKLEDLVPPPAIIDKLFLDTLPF
T2 sequence (P43354 with tags, fused parts or gaps): as the sequence (P43354 with tags, fused parts or gaps H516A) above, with A180H counted along it

| Compound | Cytotoxicity / cell viability (MN9D cells) | Chemical instability in solution [1] | Effect on expression of Nurr1 target genes Th and Vmat2 (in words) [2] | Amplitude (Nurr1 LBD Arg563Ala) | Kd (Nurr1 LBD Arg563Ala; [4]) | Amplitude (% change) (Nurr1 LBD Arg563Ala) | KD (% change) (Nurr1 LBD Arg563Ala) | Kd (Nurr1 LBD Arg563Ala; [5]) | Response Amplitude (Nurr1 LBD Arg563Ala) | Binding to the Nurr1 LBD (in words) (Nurr1 LBD (wildtype)) | Amplitude (Nurr1 LBD (wildtype)) | Kd (Nurr1 LBD (wildtype); [6]) | Response Amplitude (Nurr1 LBD (wildtype)) | Kd (Nurr1 LBD (wildtype); [7]) | Amplitude (% change) [3] | KD (% change) [3] | Amplitude [3] | Kd [3, 8] | Kd [3, 9] | Response Amplitude [3] | further results |
| --- | --- | --- | --- | --- | --- | --- | --- | --- | --- | --- | --- | --- | --- | --- | --- | --- | --- | --- | --- | --- | --- |
| Oc1ccc2[nH]ccc2c1 [5-hydroxyindole] | significant cytotoxicity | autooxidation and polymerization in solution |  |  |  |  |  |  |  |  |  |  |  |  |  |  |  |  |  |  |  |
| Brc1cc2cc[nH]c2cc1Br [5,6-dibromoindole] |  |  | does not | 32 + 3 | 11 µM | +3% | +400% | 11 µM | 32 + 3 (ns) | saturable binding | 31 + 1 | 2.2 µM | 31 + 1 | 2.2 µM | +39% | +627% | 43 + 5 | 16 µM | 15.6 µM | 43 + 5 (ns) | Amplitude (% change) (Nurr1 LBD His516Ala): +13%; KD (% change) (Nurr1 LBD His516Ala): +186%; Amplitude (Nurr1 LBD His516Ala): 35 + 2; Kd (Nurr1 LBD His516Ala; [10]): 6.3 µM; Kd (Nurr1 LBD His516Ala; [11]): 6.4 µM; Response Amplitude (Nurr1 LBD His516Ala): 35 + 2 (ns) |
| Clc1cc2cc[nH]c2cc1Cl [5,6-dichloroindole] |  |  | does not | 47 + 3 | 13 µM | −13% | +189% | 13.1 µM | 47 + 3 (ns) | saturable binding | 54 + 4 | 4.5 µM | 54 + 4 | 4.5 µM | 0% | +304% | 54 + 5 | 18 µM | 17.9 µM | 54 + 5 (ns) | Amplitude (% change) (Nurr1 LBD His516Ala): +19%; KD (% change) (Nurr1 LBD His516Ala): +166%; Amplitude (Nurr1 LBD His516Ala): 67 + 9; Kd (Nurr1 LBD His516Ala; [10]): 12 µM; Kd (Nurr1 LBD His516Ala; [11]): 12 µM; Response Amplitude (Nurr1 LBD His516Ala): 67 + 9 (ns) |
| Nc1ccc2[nH]ccc2c1 [5-aminoindole] | significant cytotoxicity | autooxidation and polymerization in solution |  |  |  |  |  |  |  |  |  |  |  |  |  |  |  |  |  |  |  |
| Oc1ccc2cc[nH]c2c1 [6-hydroxyindole] | significant cytotoxicity | autooxidation and polymerization in solution |  |  |  |  |  |  |  |  |  |  |  |  |  |  |  |  |  |  |  |
| Nc1ccc2cc[nH]c2c1 [6-aminoindole] | significant cytotoxicity | autooxidation and polymerization in solution |  |  |  |  |  |  |  |  |  |  |  |  |  |  |  |  |  |  |  |
